# Data taken from patent US20040127433A1, “Erythromycin derivative and medicament comprising the same” (priority 2000, published 2004).
# Like-named read-outs stand apart in the source and are kept apart here.
# What was measured:
# [1] = test system: clinical isolates of a typical acid-fast mycobacteria; experiment: microbe, parasite or virus in culture; assay type: cell-based, Mycobacterium; settings: 7H11 agar, 37° C., 7 days; for MIC: 168 h
# Protocol: (§1) In order to evaluate excellent efficacy of the compounds of the present invention, their antibacterial spectrums against a typical acid-fast mycobacteria were measured. Clarithromycin, rifampicin and 4″-O-acetylerythromycin A 9-(O-methyloxime) [a compound disclosed in the Japanese Patent Unexamined Publication (KOKAI) No.63-107921/1988] were used as reference compounds. Ac in the formula represents acetyl group. [drawing 1313]
# (§2) Antibacterial Activity Against a Typical Acid-Fast Mycobacteria
# (§3) Antibacterial activities (minimum inhibitory concentrations) against clinical isolates of a typical acid-fast mycobacteria were measured by the agar dilution method according to the standard method of the Japan Society of Chemotherapy. About 5 μl of bacterial suspension (adjusted to […]) were spotted on the 7H11 agar plates containing the test compounds. The minimum inhibitory concentrations were determined by the growth or no growth of the bacteria after incubation at 37° C. for 7 days. The abbreviation M in the table represents Mycobacterium. The compounds of the present invention had more excellent antibacterial activity than the reference compounds against a typical acid-fast mycobacteria including clarithromycin-resistant strains (M.avium 20092 and other bacteria).
# M.avium 20092 = experiment: Antibacterial activity (minimum inhibitory concentration), agar dilution method, clarithromycin-resistant strain; assay type: cell-based, Mycobacterium avium; settings: M. avium 20092 (clarithromycin-resistant), 7H11 agar, 37° C., 7 days; for MIC: Mycobacterium avium, 168 h
# Protocol: as §1, §2, §3
# [2] = Mycobacterium avium, read-out: Minimum inhibitory concentration, M. avium 20034
# [3] = Mycobacterium avium, read-out: Minimum inhibitory concentration, M. avium 20045
# [4] = Mycobacterium avium, read-out: Minimum inhibitory concentration, M. avium 20096
# [5] = Mycobacterium intracellulare, read-out: Minimum inhibitory concentration, M. intracellulare 20066
# [6] = Mycobacterium intracellulare, read-out: Minimum inhibitory concentration, M. intracellulare 20067
# [7] = Mycobacterium intracellulare, read-out: Minimum inhibitory concentration, M. intracellulare 20073
# [8] = Mycobacterium intracellulare, read-out: Minimum inhibitory concentration, M. intracellulare 20075
melting point,Molecule,Minimum inhibitory concentration ([1]; M. avium 20034),Minimum inhibitory concentration ([1]; M. avium 20045),Minimum inhibitory concentration ([1]; M. avium 20096),Minimum inhibitory concentration ([1]; M. intracellulare 20066),Minimum inhibitory concentration ([1]; M. intracellulare 20067),Minimum inhibitory concentration ([1]; M. intracellulare 20073),Minimum inhibitory concentration ([1]; M. intracellulare 20075),Minimum inhibitory concentration (M.avium 20092),"MIC [1, 2]","MIC [1, 3]","MIC [1, 4]","MIC [1, 5]","MIC [1, 6]","MIC [1, 7]","MIC [1, 8]",MIC (M.avium 20092)
–,4″-O-Acetyl-2′-O-benzylaminocarbonylerythromycin A 9-[O-(3-cyclo-hexylpropyl)oxime] [Example 40],0.39 µg/mL,0.78 µg/mL,0.78 µg/mL,0.20 µg/mL,0.78 µg/mL,0.78 µg/mL,0.78 µg/mL,0.78 µg/mL,–,–,–,–,–,–,–,–
–,"CO[C@H]1/C=C/O[C@@]2(C)Oc3c(C)c(O)c4c(O)c(c(/C=N/N5CCN(C)CC5)c(O)c4c3C2=O)NC(=O)/C(C)=C\C=C\[C@H](C)[C@H](O)[C@@H](C)[C@@H](O)[C@@H](C)[C@H](OC(C)=O)[C@@H]1C [compound 2, rifampicin]",–,–,–,–,–,–,–,–,12.5 µg/mL,3.13 µg/mL,3.13 µg/mL,3.13 µg/mL,1.56 µg/mL,3.13 µg/mL,3.13 µg/mL,50 µg/mL
–,"CC[C@H]1OC(=O)[C@H](C)[C@@H](O[C@H]2C[C@@](C)(OC)[C@@H](OC(C)=O)[C@H](C)O2)[C@H](C)[C@@H](O[C@@H]2O[C@H](C)C[C@H](N(C)C)[C@H]2O)[C@](C)(O)C[C@@H](C)C(=NOC)[C@H](C)[C@@H](O)[C@]1(C)O [compound 3, 4″-O-acetylerythromycin A 9-(O-methyloxime)]",>50 µg/mL,12.5 µg/mL,>50 µg/mL,12.5 µg/mL,6.25 µg/mL,12.5 µg/mL,12.5 µg/mL,>50 µg/mL,–,–,–,–,–,–,–,–
–,"CC[C@H]1OC(=O)[C@H](C)[C@@H](O[C@H]2C[C@@](C)(OC)[C@@H](O)[C@H](C)O2)[C@H](C)[C@@H](O[C@@H]2O[C@H](C)C[C@H](N(C)C)[C@H]2O)[C@](C)(OC)C[C@@H](C)C(=O)[C@H](C)[C@@H](O)[C@]1(C)O [compound 1, Clarithromycin]",–,–,–,–,–,–,–,–,3.13 µg/mL,1.56 µg/mL,> 50 µg/mL,3.13 µg/mL,1.56 µg/mL,1.56 µg/mL,3.13 µg/mL,> 50 µg/mL
107 to 110 °C,CC[C@H]1OC(=O)[C@H](C)[C@@H](O[C@H]2C[C@@](C)(OC)[C@@H](O)[C@H](C)O2)C[C@@H](O[C@@H]2O[C@H](C)C[C@H](N(C)C)[C@H]2OC(=O)NCc2ccccc2)C(C)(O)C[C@@H](C)C(=NOCCCOc2ccccc2)[C@H](C)[C@@H](O)[C@]1(C)O (some centres unmarked) [Example 34],–,–,–,–,–,–,–,–,–,–,–,–,–,–,–,–
–,CCCCCCCCON=C1[C@H](C)CC(C)(O)[C@H](O[C@@H]2O[C@H](C)C[C@H](N(C)C)[C@H]2OC(=O)NCc2ccccc2)C[C@H](O[C@H]2C[C@@](C)(OC)[C@@H](OC(C)=O)[C@H](C)O2)[C@@H](C)C(=O)O[C@H](CC)[C@@](C)(O)[C@H](O)[C@H]1C (some centres unmarked) [Example 94],–,–,–,–,–,–,–,–,0.39 µg/mL,0.78 µg/mL,0.39 µg/mL,0.39 µg/mL,0.39 µg/mL,0.39 µg/mL,0.39 µg/mL,0.39 µg/mL
